Measurements reported in US20250084177A1, “ANTI-CD98 ANTIBODIES AND USES THEREOF” (HUAHUI HEALTH LTD., priority 2021, published 2025).

Target: T1, LAT1/CD98 heterodimer HAT complex (Homo sapiens, UniProt P08195+Q01650)
T1 construct: in the tumor cell lines earlier found to be highly sensitive to S1-F4 treatment; endogenous in cells
Assay: Amino acid (HPG) uptake assay
Assay type: cell-based
Settings: HepG2 and Raji cells; antibody 15 μg/ml, BCH 10 mM
Method: Cells were incubated with 15 μg/ml antibody for 24 hr in growth medium. Then they were equilibrated for 30 min at 37° C. with Met-free DMEM. HPG (Thermo Fisher Scientific) was added to the cells at a final concentration of 70 μM. […] After 2-3 hr, cells were washed with PBS and lysed with lysis buffer (1% SDS in 50 mM Tris-HCL, pH 8.0) with complete protease inhibitors (Roche). HPG in cell lysis was biotinylated according to manufacturer instructions (Thermo Fisher Scientific). Then cell lysis was transferred into 96 well plate (Nunc, MaxiSorp™) and incubated at 4° C. overnight. The amount of HGP in cell lysates was then detected by streptavidin-HRP (Thermo Fisher Scientific) in an ELISA-based assay.
Amino acid uptake assay was conducted to analyze the effect of S1-F4 in amino acid transport. L-Homopropargylglycine (HPG), a methionine mimic, was used as a traceable substrate for the LAT1 (L-type/large neutral amino acid transporter 1)/CD98 heterodimer HAT complex, and the LAT1/CD98 complex inhibitor BCH (2-amino-2-norbornane-carboxylic acid) was used as a positive control for disrupting transport function.

T1 sequence (P08195 103-630 limits assumed): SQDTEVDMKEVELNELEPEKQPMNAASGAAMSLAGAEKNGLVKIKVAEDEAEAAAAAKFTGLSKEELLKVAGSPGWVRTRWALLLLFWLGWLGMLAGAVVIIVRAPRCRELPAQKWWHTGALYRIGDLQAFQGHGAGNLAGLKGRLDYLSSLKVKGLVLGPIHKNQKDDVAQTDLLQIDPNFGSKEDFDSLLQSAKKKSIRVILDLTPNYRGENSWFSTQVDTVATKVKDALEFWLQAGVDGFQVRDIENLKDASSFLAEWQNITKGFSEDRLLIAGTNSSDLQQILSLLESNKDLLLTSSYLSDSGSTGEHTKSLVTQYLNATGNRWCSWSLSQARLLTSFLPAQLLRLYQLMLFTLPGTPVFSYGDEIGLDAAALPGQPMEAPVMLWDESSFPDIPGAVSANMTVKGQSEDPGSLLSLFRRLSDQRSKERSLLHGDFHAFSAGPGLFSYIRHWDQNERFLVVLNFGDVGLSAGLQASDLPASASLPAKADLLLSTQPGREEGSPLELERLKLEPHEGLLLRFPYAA
T1 sequence (Q01650 whole entry): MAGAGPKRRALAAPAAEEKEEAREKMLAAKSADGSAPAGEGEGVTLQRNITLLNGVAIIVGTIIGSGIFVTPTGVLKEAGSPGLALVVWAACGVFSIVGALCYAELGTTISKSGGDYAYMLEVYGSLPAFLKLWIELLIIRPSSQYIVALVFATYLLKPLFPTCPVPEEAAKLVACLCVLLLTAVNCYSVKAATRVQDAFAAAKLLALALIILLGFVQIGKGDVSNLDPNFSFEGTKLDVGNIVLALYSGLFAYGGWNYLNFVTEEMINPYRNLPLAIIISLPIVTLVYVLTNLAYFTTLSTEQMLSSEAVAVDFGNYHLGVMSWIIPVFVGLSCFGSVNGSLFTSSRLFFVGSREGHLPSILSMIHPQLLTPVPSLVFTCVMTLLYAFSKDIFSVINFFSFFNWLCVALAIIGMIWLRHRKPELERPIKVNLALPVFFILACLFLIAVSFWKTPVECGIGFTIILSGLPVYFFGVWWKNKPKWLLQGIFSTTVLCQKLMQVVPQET

HPG uptake / HAT complex transport activity: impaired HAT complex transport activity
SMILES: NC1(C(=O)O)CC2CCC1C2 (stereo not shown) [BCH, 2-amino-2-norbornane-carboxylic acid]
